# Species on record: Rattus norvegicus
# Assay: DrugMatrix - Regimen: Daily Repeat
# Format: toxicity, organism-based, Sprague-Dawley
# Set-up: regimen Daily Repeat, gender Male, age 6-8 weeks
# Settings: in vivo, po, route oral GAVAGE, […]; for ABSOLUTE BASOPHIL / ABSOLUTE EOSINOPHIL / ABSOLUTE LYMPHOCYTE / ABSOLUTE MONOCYTE / ABSOLUTE SEGMENTED NEUTROPHIL / BASOPHIL / EOSINOPHIL / ERYTHROCYTE COUNT / HEMATOCRIT / HEMOGLOBIN / LEUKOCYTE COUNT / LYMPHOCYTE / MEAN CORPUSCULAR HEMOGLOBIN / MEAN CORPUSCULAR HEMOGLOBIN CONCENTRATION / MEAN CORPUSCULAR VOLUME / MONOCYTE / NEUTROPHIL / NUCLEATED RED BLOOD CELLS / PLATELET COUNT: tissue Blood; for ALANINE AMINOTRANSFERASE / ALBUMIN / ALKALINE PHOSPHATASE / ASPARTATE AMINOTRANSFERASE / BLOOD UREA NITROGEN / CARBON DIOXIDE / CHLORIDE / CHOLESTEROL / CREATINE PHOSPHOKINASE / CREATININE / GLUCOSE / LACTATE DEHYDROGENASE / LIPASE / PHOSPHORUS / POTASSIUM / SODIUM / TOTAL BILIRUBIN / TOTAL PROTEIN / URIC ACID: tissue Plasma
# [1] = 0 mg/kg, 72 h, dose level Control, time 3 day
# [2] = 0 mg/kg, 120 h, dose level Control, time 5 day
# [3] = 11 mg/kg, 72 h, dose level High, time 3 day
structure (smiles),measurement,setting,value
C[C@H]1O[C@@H](O[C@H]2[C@@H](O)C[C@H](O[C@H]3[C@@H](O)C[C@H](O[C@H]4CC[C@@]5(C)[C@H](CC[C@@H]6[C@@H]5C[C@@H](O)[C@]5(C)[C@@H](C7=CC(=O)OC7)CC[C@]65O)C4)O[C@@H]3C)O[C@@H]2C)C[C@H](O)[C@@H]1O [DIGOXIN],ABSOLUTE BASOPHIL,[1],0 CELLS/uL
same,ABSOLUTE EOSINOPHIL,[1],0 CELLS/uL
same,ABSOLUTE LYMPHOCYTE,[1],8493 CELLS/uL
same,ABSOLUTE MONOCYTE,[1],127 CELLS/uL
same,ABSOLUTE SEGMENTED NEUTROPHIL,[1],896.67 CELLS/uL
same,BASOPHIL,[1],0%
same,EOSINOPHIL,[1],0%
same,ERYTHROCYTE COUNT,[1],5.53 x10E6/uL
same,HEMATOCRIT,[1],34.07%
same,HEMOGLOBIN,[1],13.28 G/DL
same,LEUKOCYTE COUNT,[1],9.52 x10E3/uL
same,LYMPHOCYTE,[1],89.17%
same,MEAN CORPUSCULAR HEMOGLOBIN,[1],24.07 pg
same,MEAN CORPUSCULAR HEMOGLOBIN CONCENTRATION,[1],39.03 G/DL
same,MEAN CORPUSCULAR VOLUME,[1],61.62 fL
same,MONOCYTE,[1],1.33%
same,NEUTROPHIL,[1],9.5%
same,NUCLEATED RED BLOOD CELLS,[1],0.17 /100WBC
same,PLATELET COUNT,[1],1054.17 x10E3/uL
same,ALANINE AMINOTRANSFERASE,[1],77.67 u/L
same,ALBUMIN,[1],4.08 G/DL
same,ALKALINE PHOSPHATASE,[1],404.5 u/L
same,ASPARTATE AMINOTRANSFERASE,[1],83.17 u/L
same,BLOOD UREA NITROGEN,[1],14.33 mg/dL
same,CARBON DIOXIDE,[1],33.17 mmol/L
same,CHLORIDE,[1],101 MEQ/L
same,CHOLESTEROL,[1],76.33 mg/dL
same,CREATINE PHOSPHOKINASE,[1],184.5 u/L
same,CREATININE,[1],0.13 mg/dL
same,GLUCOSE,[1],163.67 mg/dL
same,LACTATE DEHYDROGENASE,[1],130.33 u/L
same,LIPASE,[1],11 u/L
same,PHOSPHORUS,[1],9.27 mg/dL
same,POTASSIUM,[1],6.26 MEQ/L
same,SODIUM,[1],143.57 MEQ/L
same,TOTAL BILIRUBIN,[1],0.18 mg/dL
same,TOTAL PROTEIN,[1],5.82 G/DL
same,URIC ACID,[1],1.38 mg/dL
same,ABSOLUTE BASOPHIL,[2],0 CELLS/uL
same,ABSOLUTE EOSINOPHIL,[2],0 CELLS/uL
same,ABSOLUTE LYMPHOCYTE,[2],8546.17 CELLS/uL
same,ABSOLUTE MONOCYTE,[2],49.5 CELLS/uL
same,ABSOLUTE SEGMENTED NEUTROPHIL,[2],554.33 CELLS/uL
same,BASOPHIL,[2],0%
same,EOSINOPHIL,[2],0%
same,ERYTHROCYTE COUNT,[2],5.36 x10E6/uL
same,HEMATOCRIT,[2],33.38%
same,HEMOGLOBIN,[2],13.2 G/DL
same,LEUKOCYTE COUNT,[2],9.15 x10E3/uL
same,LYMPHOCYTE,[2],93.17%
same,MEAN CORPUSCULAR HEMOGLOBIN,[2],24.68 pg
same,MEAN CORPUSCULAR HEMOGLOBIN CONCENTRATION,[2],39.58 G/DL
same,MEAN CORPUSCULAR VOLUME,[2],62.38 fL
same,MONOCYTE,[2],0.5%
same,NEUTROPHIL,[2],6.33%
same,NUCLEATED RED BLOOD CELLS,[2],0.17 /100WBC
same,PLATELET COUNT,[2],1099.33 x10E3/uL
same,ALANINE AMINOTRANSFERASE,[2],62.33 u/L
same,ALBUMIN,[2],4.1 G/DL
same,ALKALINE PHOSPHATASE,[2],419 u/L
same,ASPARTATE AMINOTRANSFERASE,[2],83.17 u/L
same,BLOOD UREA NITROGEN,[2],15.5 mg/dL
same,CARBON DIOXIDE,[2],33.17 mmol/L
same,CHLORIDE,[2],98 MEQ/L
same,CHOLESTEROL,[2],58.33 mg/dL
same,CREATINE PHOSPHOKINASE,[2],393.17 u/L
same,CREATININE,[2],0.18 mg/dL
same,GLUCOSE,[2],163 mg/dL
same,LACTATE DEHYDROGENASE,[2],111.5 u/L
same,LIPASE,[2],9.5 u/L
same,PHOSPHORUS,[2],10.02 mg/dL
same,POTASSIUM,[2],5.73 MEQ/L
same,SODIUM,[2],143.65 MEQ/L
same,TOTAL BILIRUBIN,[2],0.2 mg/dL
same,TOTAL PROTEIN,[2],5.85 G/DL
same,URIC ACID,[2],0.78 mg/dL
same,ABSOLUTE BASOPHIL,[3],0 CELLS/uL
same,ABSOLUTE EOSINOPHIL,[3],0 CELLS/uL
same,ABSOLUTE LYMPHOCYTE,[3],7683.67 CELLS/uL
same,ABSOLUTE MONOCYTE,[3],95.67 CELLS/uL
same,ABSOLUTE SEGMENTED NEUTROPHIL,[3],254 CELLS/uL
same,BASOPHIL,[3],0%
same,EOSINOPHIL,[3],0%
same,ERYTHROCYTE COUNT,[3],6.46 x10E6/uL
same,HEMATOCRIT,[3],39.07%
same,HEMOGLOBIN,[3],14.83 G/DL
same,LEUKOCYTE COUNT,[3],8.03 x10E3/uL
same,LYMPHOCYTE,[3],95.67%
same,MEAN CORPUSCULAR HEMOGLOBIN,[3],22.9 pg
same,MEAN CORPUSCULAR HEMOGLOBIN CONCENTRATION,[3],37.9 G/DL
same,MEAN CORPUSCULAR VOLUME,[3],60.4 fL
same,MONOCYTE,[3],1%
same,NEUTROPHIL,[3],3.33%
same,NUCLEATED RED BLOOD CELLS,[3],0 /100WBC
same,PLATELET COUNT,[3],1036 x10E3/uL
same,ALANINE AMINOTRANSFERASE,[3],99.67 u/L
same,ALBUMIN,[3],4.37 G/DL
same,ALKALINE PHOSPHATASE,[3],416 u/L
same,ASPARTATE AMINOTRANSFERASE,[3],100.33 u/L
same,BLOOD UREA NITROGEN,[3],11.67 mg/dL
same,CARBON DIOXIDE,[3],33 mmol/L
same,CHLORIDE,[3],100 MEQ/L
same,CHOLESTEROL,[3],90.67 mg/dL
same,CREATINE PHOSPHOKINASE,[3],245.33 u/L
same,CREATININE,[3],0.1 mg/dL
same,GLUCOSE,[3],142.33 mg/dL
same,LACTATE DEHYDROGENASE,[3],125.67 u/L
same,LIPASE,[3],10.33 u/L
same,PHOSPHORUS,[3],8.27 mg/dL
same,POTASSIUM,[3],6.27 MEQ/L
same,SODIUM,[3],143.3 MEQ/L
same,TOTAL BILIRUBIN,[3],0.2 mg/dL
same,TOTAL PROTEIN,[3],6.3 G/DL
same,URIC ACID,[3],1 mg/dL

# Reference: ChEMBL document CHEMBL3885881, “DrugMatrix”
